Data on 1 compound can be found in PMC8414802, “Hair Cell Generation in Cochlear Culture Models Mediated by Novel γ-Secretase Inhibitors” (Frontiers in Cell and Developmental Biology, 2021).

Molecules are shown by their SMILES.

The test system of the experiment is Atoh1-GFP positive hair cells and Sox2+ supporting cells in whole cochlea. In words: Ex vivo whole cochlea culture, drug applied at the round window niche. The format is cell-based, mouse. Here is the method: To culture the intact cochlea of P0–P1 mice, the entire otic capsule (cochlea and semicircular canals) was carefully dissected. Connective tissues and nerves were removed to clear the round window niche and the capsule was positioned with the round window facing up in a sterile 35 mm dish. A surgical sponge was employed to blot dry the interior of the round window niche, which was then filled with 2 μl of the formulated drug and applied with a small pipette tip. Following 2 h of drug treatment at 37°C with 5% CO2, the tissue was transferred to a 50 ml conical tube containing 10 ml medium (DMEM, 5%FBS, 5% horse serum and ampicillin) and the tube was sparged with 95% O2/5% CO2 for 5–10 min and incubated for 2 days at 37°C, rotating on a roller/rocker (SCILOGEX MX-T6-S Analog Tube Roller) at 15–17 rpm.
For whole-mount immunohistochemistry, whole cochleae were fixed (4% PFA) ON at 4°C, then incubated in primary antibodies (72 h, rocking at 4°C), goat anti-GFP polyclonal Ab (AbCam, ab6673) and rabbit anti-Sox2 polyclonal IgG (GenTex, GTX101506) in 4% normal donkey serum. Following extended washes (over 24 h), cochlea were incubated for 24 h in secondary antibodies donkey anti-goat Alexa 488 (Thermo Fisher, A11055) and donkey anti-rabbit Alexa 647 (Thermo Fisher, A31573) and extensively washed. The intact OC were then microdissected from cochleae and mounted on a coverslip for confocal imaging. A LSM 510 Confocal Microscope (Zeiss) utilizing 63X Zeiss Plan-APOCHROMAT DIC oil, 1.4NA and Zen 2009 LSM imaging software was used to optically scan mid-apex regions of OCs. Cellular quantification and image analysis computation were performed with Imaris 8.2.1 software (Bitplane).
To assess the permeability of the compounds across the round window membrane, a novel ex vivo model was devised to compare drug entry, after delivery to the exterior of the cochlear capsule, to resemble middle ear application. Specifically, CPD3 application was tested in organotypic culture of the entire otic capsule (Figure 4). CPD3, formulated at two different concentrations (1 and 7.2 mM) in 70% PEG400 or 10% POX338 (POX), was applied at the round window niche. Drug formulations were allowed to absorb briefly into the cochlea prior to the 48 h culture. […] For the POX338 formulation, we further characterized the number of Sox2+ supporting cells in the sensory epithelium. […] Also in this model, we observed a trend for new hair cells to be greater toward the apex than the base in agreement with the results obtained with the OC organotypic culture and indicated GSI exposure was throughout the entire length of the organ of Corti length during the culture period.
FIGURE 4 Hair cell quantification in whole cochlea culture. (A) Hair cell counts from whole cochea culture with directly applied CPD3 in 70% PEG400 (1 mM or 7.2 mM). Atoh1-GFP positive hair cells in different organ of Corti regions (B, base; MB, mid-base; MA, mid-apex; A, apex) (n = 3 independent experiments). (B) Hair cell counts from whole cochea culture with directly applied CPD3 in 10% POX338 (1 mM;, or 7.2 mM). Atoh1-GFP positive hair cells in different organ of Corti regions (B, base; MB, mid-base; MA, mid-apex; A, apex; n = 3 independent experiments). (C) Immunostained inner ear sensory epithelia following whole cochlea culture with direct application of CPD3 (1 and 7.2 mM; Vehicle, 10% POX338). 3D projections of confocal stacks at mid-base region of organ of Corti, Atoh1-GFP (hair cells, green) and Sox2 (supporting cells, red). (D) Quantification of Atoh1-GFP-positive (green dots) and Sox2-positive cells (red dots) after direct application of CPD3 (1 or 7.2 mM), or vehicle formulated in 10% POX338. (*p < 0.05; ***p < 0.001, one-way ANOVA with multiple comparison; n = 12; 3 independent experiments; all regions-base to apex).

With `COc1ccc2c(c1)N1CCC(C)(C)C1=CC(=O)[C@H]2NC(=O)[C@H](C)NC(=O)CCC(F)(F)F` [CPD3], the “Increase in Atoh1+ hair cells above vehicle-only” value is given as 23.3% (1 mM in 10% POX338), 54.4% (7.2 mM in 10% POX338) and 60.1% (7.2 mM in 70% PEG400). For the same compound, the “Atoh1+ hair cells” value stood at 72 ± 11 hair cells/100 μm (1 mM in 10% POX338, 48 h culture); 54 ± 7 hair cells/100 μm (1 mM in 70% PEG400, 48 h culture); 90 ± 20 hair cells/100 μm (7.2 mM in 10% POX338, 48 h culture); 87 ± 15 hair cells/100 μm (7.2 mM in 70% PEG400, 48 h culture). Besides, for the setting “1 mM in 70% PEG400”, the “Change in Atoh1+ hair cells above vehicle-only” value is recorded as “no change”. Under “10% POX338 formulation, p < 0.001”, the “Supporting cell (Sox2+) counts” value is “significant decrease”.
